In US6531610B1 (Abbott Laboratories, priority 1989, dated 2003):

System: HIV-13B in MT4 cells
Test: Antiviral activity: inhibition of the cytopathic effect of HIV in MT4 cells
Assay type: cell-based, HIV-1
Conditions: Human immunodeficiency virus 1, MT4

Row | SMILES | IC50 [nM]
1 | CCCN(Cc1csc(C(C)C)n1)C(=O)N[C@@H](C)C(=O)N[C@@H](Cc1ccccc1)C[C@H](O)[C@H](Cc1ccccc1)NC(=O)OCc1cncs1 [Example 54] | 110 to 170

Same assay, conditions: Human immunodeficiency virus 1, MT4; read-out: IC50

Row | SMILES | IC50 [nM]
2 | CC(C)c1nc(COC(=O)N[C@H](C(=O)N[C@@H](Cc2ccccc2)[C@@H](O)C[C@H](Cc2ccccc2)NC(=O)OCc2cncs2)C(C)C)cs1 [Example 6, (2S,3S,5S)-2-(N-(N-((2-Isopropyl-4-thiazolyl)methoxycarbonyl)valinyl)amino)-5-(N-((5-thiazolyl)methoxycarbonyl)amino)-1,6-diphenyl-3-hydroxyhexane] | 6 to 14
3 | CC(C)[C@H](NC(=O)N(C)Cc1csc(C2CCC2)n1)C(=O)N[C@@H](Cc1ccccc1)C[C@H](O)[C@H](Cc1ccccc1)NC(=O)OCc1cncs1 [Example 52, (2S,3S,5S)-5-(N-(N-((N-Methyl-N-((2-cyclobutyl-4-thiazolyl)methyl)amino)carbonyl)valinyl)amino)-2-(N-((5-thiazolyl)methoxycarbonyl)amino)-1,6-diphenyl-3-hydroxyhexane] | 35 to 42
4 | CC(C)[C@H](NC(=O)OCc1csc(N(C)C)n1)C(=O)N[C@@H](Cc1ccccc1)[C@@H](O)C[C@H](Cc1ccccc1)NC(=O)OCc1cncs1 [Example 10, (2S,3S,5S)-2-(N-(N-((2-(N,N-Dimethylamino)-4-thiazolyl)methoxycarbonyl)valinyl)amino)-5-(N-((5-thiazolyl)methoxycarbonyl)amino)-1,6-diphenyl-3-hydroxyhexane] | 54 to 71
5 | CC(C)[C@H](NC(=O)OCc1csc(N2CCOCC2)n1)C(=O)N[C@@H](Cc1ccccc1)C[C@H](O)[C@H](Cc1ccccc1)NC(=O)OCc1cncs1 [Example 11, (2S,3S,5S)-5-(N-(N-((2-(4-Morpholinyl)-4-thiazolyl)methoxycarbonyl)valinyl)amino)-2-(N-((5-thiazolyl)methoxycarbonyl)amino)-1,6-diphenyl-3-hydroxyhexane] | 17 to 132
6 | CCC(CC)c1nc(CN(C)C(=O)N[C@H](C(=O)N[C@@H](Cc2ccccc2)C[C@H](O)[C@H](Cc2ccccc2)NC(=O)OCc2cncs2)C(C)C)cs1 [Example 44, (2S,3S,5S)-5-(N-(N-((N-Methyl-N-((2-(3-pentyl)-4-thiazolyl)methyl)amino)carbonyl)valinyl)amino)-2-(N-((5-thiazolyl)methoxycarbonyl)amino)-1,6-diphenyl-3-hydroxyhexane] | 120 to 160
7 | CC(C)c1nc(COC(=O)N[C@H](C(=O)N[C@@H](Cc2ccccc2)C[C@H](O)[C@H](Cc2ccccc2)NC(=O)OCc2cncs2)C(C)C)cs1 [Example 5, (2S,3S,5S)-5-(N-(N-((2-Isopropyl-4-thiazolyl)methoxycarbonyl)valinyl)amino)-2-(N-((5-thiazolyl)methoxycarbonyl)amino)-1,6-diphenyl-3-hydroxyhexane] | 3 to 9
8 | CC(C)c1nc(CCN(C)C(=O)N[C@H](C(=O)N[C@@H](Cc2ccccc2)C[C@H](O)[C@H](Cc2ccccc2)NC(=O)OCc2cncs2)C(C)C)cs1 [Example 61, (2S,3S,5S)-5-(N-(N-((N-Methyl-N-(2-(2-isopropyl-4-thiazolyl)ethyl)amino)carbonyl)valinyl)amino)-2-(N-((5-thiazolyl)methoxycarbonyl)amino)-1,6-diphenyl-3-hydroxyhexane] | 150 to 220
9 | CC(C)c1nc(CN(C)C(=O)N[C@H](C(=O)N[C@@H](Cc2ccccc2)C[C@H](O)[C@H](Cc2ccccc2)NC(=O)OCc2cncs2)C(C)C)cs1 [Example 1, (2S,3S,5S)-5-(N-(N-((N-Methyl-N-((2-isopropyl-4-thiazolyl)methyl)amino)carbonyl)valinyl)amino)-2-(N-((5-thiazolyl)methoxycarbonyl)amino)-1,6-diphenyl-3-hydroxyhexane] | 25 to 40
10 | CCN(Cc1csc(C(C)C)n1)C(=O)N[C@H](C(=O)N[C@@H](Cc1ccccc1)C[C@H](O)[C@H](Cc1ccccc1)NC(=O)OCc1cncs1)C(C)C [Example 4, (2S,3S,5S)-5-(N-(N-((N-Ethyl-N-((2-isopropyl-4-thiazolyl)methyl)amino)carbonyl)valinyl)amino)-2-(N-((5-thiazolyl)methoxycarbonyl)amino)-1,6-diphenyl-3-hydroxyhexane] | 170 to 320
11 | CC(C)[C@H](NC(=O)OCc1csc(N2CCOCC2)n1)C(=O)N[C@@H](Cc1ccccc1)[C@@H](O)C[C@H](Cc1ccccc1)NC(=O)OCc1cncs1 [Example 12, (2S,3S,5S)-2-(N-(N-((2-(4-Morpholinyl)-4-thiazolyl)-methoxycarbonyl)valinyl)amino)-5-(N-((5-thiazolyl)-methoxycarbonyl)amino)-1,6-diphenyl-3-hydroxyhexane] | 53 to 106
12 | CC(C)c1nc(COC(=O)N[C@@H](C)C(=O)N[C@@H](Cc2ccccc2)C[C@H](O)[C@H](Cc2ccccc2)NC(=O)OCc2cncs2)cs1 [Example 7, (2S,3S,5S)-5-(N-(N-((2-Isopropyl-4-thiazolyl)methoxycarbonyl)alaninyl)amino)-2-(N-((5-thiazolyl)methoxycarbonyl)amino)-1,6-diphenyl-3-hydroxyhexane] | 76 to 131
13 | CC(C)c1nc(CN(C(=O)N[C@H](C(=O)N[C@@H](Cc2ccccc2)C[C@H](O)[C@H](Cc2ccccc2)NC(=O)OCc2cncs2)C(C)C)C2CC2)cs1 [Example 17, (2S,3S,5S)-5-(N-(N-((N-Cyclopropyl-N-((2-isopropyl-4-thiazolyl)methyl)amino)carbonyl)valinyl)amino)-2-(N-((5-thiazolyl)methoxycarbonyl)amino)-1,6-diphenyl-3-hydroxyhexane] | 230 to 310
14 | CC(C)c1nc(CN(C)C(=O)N[C@@H](C)C(=O)N[C@@H](Cc2ccccc2)C[C@H](O)[C@H](Cc2ccccc2)NC(=O)OCc2cncs2)co1 [Example 56, (2S,3S,5S)-5-(N-(N-((N-Methyl-N-((2-isopropyl-4-oxazolyl)methyl)amino)carbonyl)-L-alaninyl)amino)-2-(N-((5-thiazolyl)methoxycarbonyl)amino)-1,6-diphenyl-3-hydroxyhexane] | 50 to 67
15 | CCc1nc(CN(C)C(=O)N[C@H](C(=O)N[C@@H](Cc2ccccc2)C[C@H](O)[C@H](Cc2ccccc2)NC(=O)OCc2cncs2)C(C)C)co1 [Example 41, (2S,3S,5S)-5-(N-(N-((N-Methyl-N-((2-ethyl-4-oxazolyl)methyl)amino)carbonyl)valinyl)amino)-2-(N-((5-thiazolyl)methoxycarbonyl)amino)-1,6-diphenyl-3-hydroxyhexane] | 15 to 20
16 | CC(C)c1nc(CN(C)C(=O)N[C@@H](C)C(=O)N[C@@H](Cc2ccccc2)C[C@H](O)[C@H](Cc2ccccc2)NC(=O)OCc2ccno2)co1 [Example 57, (2S,3S,5S)-5-(N-(N-((N-Methyl-N-((2-isopropyl-4-oxazolyl)methyl)amino)carbonyl)-L-alaninyl)amino)-2-(N-((5-isoxazolyl)methoxycarbonyl)amino)-1,6-diphenyl-3-hydroxyhexane] | 35 to 48
17 | CC(C)c1nc(CCOC(=O)N[C@H](C(=O)N[C@@H](Cc2ccccc2)C[C@H](O)[C@H](Cc2ccccc2)NC(=O)OCc2cncs2)C(C)C)cs1 [Example 47, (2S,3S,5S)-5-(N-(N-((2-(2-Isopropyl-4-thiazolyl)ethoxy)carbonyl)valinyl)amino)-2-(N-((5-thiazolyl)methoxycarbonyl)amino)-1,6-diphenyl-3-hydroxyhexane] | 9 to 24
18 | Cc1nc(CN(C)C(=O)N[C@H](C(=O)N[C@@H](Cc2ccccc2)C[C@H](O)[C@H](Cc2ccccc2)NC(=O)OCc2cncs2)C(C)C)co1 [Example 42, (2S,3S,5S)-5-(N-(N-((N-Methyl-N-((2-methyl-4-oxazolyl)methyl)amino)carbonyl)valinyl)amino)-2-(N-((5-thiazolyl)methoxycarbonyl)amino)-1,6-diphenyl-3-hydroxyhexane] | 73 to 80
19 | CC(C)c1nc(CN(C)C(=O)N[C@H](C(=O)N[C@@H](Cc2ccccc2)C[C@H](O)[C@H](Cc2ccccc2)NC(=O)OCc2ccno2)C(C)C)co1 [Example 27, (2S,3S,5S)-5-(N-(N-((N-Methyl-N-((2-isopropyl-4-oxazolyl)methyl)amino)carbonyl)valinyl)amino)-2-(N-((5-isoxazolyl)methoxycarbonyl)amino)-1,6-diphenyl-3-hydroxyhexane] | 11 to 12
20 | Cc1ncc(COC(=O)N[C@@H](Cc2ccccc2)C[C@H](O)[C@H](Cc2ccccc2)NC(=O)[C@@H](NC(=O)N(C)Cc2csc(C(C)C)n2)C(C)C)s1 [Example 39, (2S,3S,5S)-2-(N-(N-((N-Methyl-N-((2-isopropyl-4-thiazolyl)methyl)amino)carbonyl)valinyl)amino)-5-(N-((2-methyl-5-thiazolyl)methoxycarbonyl)amino)-1,6-diphenyl-3-hydroxyhexane] | 73 to 77
21 | Cc1ncc(COC(=O)N[C@@H](Cc2ccccc2)[C@@H](O)C[C@H](Cc2ccccc2)NC(=O)[C@@H](NC(=O)N(C)Cc2csc(C(C)C)n2)C(C)C)s1 [Example 28, (2S,3S,5S)-5-(N-(N-((N-Methyl-N-((2-isopropyl-4-thiazolyl)methyl)amino)carbonyl)valinyl)amino)-2-(N-((2-methyl-5-thiazolyl)methoxycarbonyl)amino)-1,6-diphenyl-3-hydroxyhexane] | 110 to 120
22 | CC(C)c1nc(CN(C(=O)N[C@@H](C)C(=O)N[C@@H](Cc2ccccc2)C[C@H](O)[C@H](Cc2ccccc2)NC(=O)OCc2cncs2)C2CC2)cs1 [Example 15, (2S,3S,5S)-5-(N-(N-((N-Cyclopropyl-N-((2-isopropyl-4-thiazolyl)methyl)amino)carbonyl)alaninyl)amino)-2-(N-((5-thiazolyl)methoxycarbonyl)amino)-1,6-diphenyl-3-hydroxyhexane] | 430 to 670

Same assay, conditions: concentration giving 50% inhibition of the cytopathic effect of HIV; HIV-13B in MT4 cells; read-out: IC50

Row | SMILES | IC50 [nM]
23 | CC(C)c1nc(CN(C)C(=O)N[C@H](C(=O)N[C@@H](Cc2ccccc2)C[C@H](O)[C@H](Cc2ccccc2)NC(=O)OCc2cnco2)C(C)C)cs1 [Example 20] | 11 to 14
24 | CC(C)c1nc(CN(C)C(=O)N[C@@H](C)C(=O)N[C@@H](Cc2ccccc2)C[C@H](O)[C@H](Cc2ccccc2)NC(=O)OCc2cncs2)cs1 [Example 3, (2S.3S.5S)-5-(N-(N-((N-Methyl-N-((2-isopropyl-4-thiazolyl)methyl)amino)carbonyl)alaninyl)amino)-2-(N-((5-thiazolyl)methoxycarbonyl)amino)-1,6-diphenyl-3-hydroxyhexane] | 41 to 75
